pIC50: −log10 of the molar value.
What was measured:
hERG potassium channel = hERG potassium channel (Homo sapiens (Human), UniProt Q12809); experiment: Blocking effect on hERG potassium currents, manual patch-clamp in CHO cells stably expressing hERG channel; type: cell-based; conditions: read-out: IC50 for the blocking effect on the hERG potassium ion channel
Description: This example is intended to assess the blocking effect of the compounds of the present disclosure and positive compound 1 (see the compound of Example 7 on page 125 of WO2019239319A1) on hERG potassium currents in a stable cell strain transfected with an hERG potassium channel by a manual patch-clamp assay. The structure of positive compound 1 is shown below:
The cells used in this experiment were from a CHO cell line (provided by Sophion Bioscience, Denmark) transfected with hERG cDNA and stably expressing hERG channel at cell passage number of P5. Cells were cultured in a medium containing the following components (all from Invitrogen): Ham's F12 medium, 10% (v/v) inactivated fetal bovine serum, 100 μg/mL hygromycin B, and 100 μg/mL geneticin.
CHO hERG cells were grown in a culture dish containing the above culture medium and cultured in an incubator at 37° C. with 5% CO2. 24-48 h before the electrophysiological experiment, CHO hERG cells were transferred to round slides placed in the culture dish and grown in the same culture medium and culture conditions as above. The density of CHO hERG cells on each round slide was required to achieve the requirement that most cells were independent and individual.
In this experiment, a manual patch-clamp system (HEKA EPC-10 signal amplifier and digital conversion system, purchased from HEKA Electronics, Germany) was used for whole cell current recording. Round slides with CHO hERG cells grown on the surface were placed in an electrophysiological recording chamber under an inverted microscope. The chamber was continuously perfused with extracellular fluid (approximately 1 mL/min). The experimental procedures were performed by conventional whole-cell patch-clamp current recording technology. Unless otherwise stated, the experiment was performed at room temperature ([…]). The cells were clamped at a voltage of −80 mV. The cell clamp voltage was depolarized to +20 mV to activate the hERG potassium channel, and then clamped to −50 mV 5 s later to eliminate inactivation and generate tail currents. The tail current peak was used as a value for the numeral value of the hERG current. After the hERG potassium currents recorded in the above step were stable under the continuous extracellular fluid perfusion in the recording chamber, the drug to be tested could be added for perfusion until the inhibitory effect of the drug on the hERG current reached a stable state. Generally, the last superposition of 3 consecutive current recording lines is used as a criterion for determining whether a stable state is reached. […]
The experimental data were analyzed by data analysis software supplied by HEKA Patchmaster(V2x73.2), Microsoft Excel, and Graphpad Prism 5.0. […]

CYP1A2 = CYP1A2 (Homo sapiens (Human), UniProt P05177); experiment: Inhibition of human liver microsome CYP450 enzyme, CYP1A2 phenacetin site; type: in vitro ADME; conditions: human liver microsomes, probe substrate phenacetin
CYP1A2, sequence (P05177 whole entry): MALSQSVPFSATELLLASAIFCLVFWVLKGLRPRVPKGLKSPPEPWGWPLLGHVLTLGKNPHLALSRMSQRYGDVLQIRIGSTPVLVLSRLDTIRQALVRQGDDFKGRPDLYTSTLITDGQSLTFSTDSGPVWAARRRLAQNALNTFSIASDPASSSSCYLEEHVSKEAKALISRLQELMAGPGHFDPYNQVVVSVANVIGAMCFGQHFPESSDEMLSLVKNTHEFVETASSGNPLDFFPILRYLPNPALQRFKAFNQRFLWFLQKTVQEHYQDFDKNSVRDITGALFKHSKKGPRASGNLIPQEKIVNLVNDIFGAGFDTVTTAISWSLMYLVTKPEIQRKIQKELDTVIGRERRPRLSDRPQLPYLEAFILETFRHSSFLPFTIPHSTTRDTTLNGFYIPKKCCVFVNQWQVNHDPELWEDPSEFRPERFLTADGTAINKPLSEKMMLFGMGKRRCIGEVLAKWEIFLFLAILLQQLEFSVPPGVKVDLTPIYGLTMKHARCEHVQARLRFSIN
Procedure: (§1) I. Materials and Instruments • 1. Phosphate buffered saline (20×PBS, purchased from Sangon); • 2. NADPH (ACROS, A2646-71-1); • 3. Human liver microsome (Corning Gentest, Cat No. 452161, Lot No. 905002, Donor35); • 4. ABI QTrap 4000 LC-MS System (AB Sciex); • 5. ZORBAX Extend-C18, 3×50 mm, 3.5 μm (Agilent, USA); • 6. CYP probe substrate.
(§2) An appropriate amount of human liver microsome stock solution (20 mg/mL) was diluted to obtain a 0.25 mg/mL microsome solution with 7.5 mM MgCl2 solution for later use (prepared right before use).
(§3) b. An appropriate amount of the stock solution was precisely pipetted, and diluted into series solution I at the concentrations of 10 mM, 3 mM, 1 mM, 0.3 mM, 0.03 mM and 0.003 mM with an appropriate amount of DMSO solution. An appropriate amount of the above series solution I was precisely pipetted, and diluted to obtain series solution II at the concentrations of 3 mM, 1 mM, 0.3 mM, 0.1 mM, 0.03 mM, 0.003 mM and 0.0003 mM with an appropriate amount of acetonitrile. An appropriate amount of the above series solution II was precisely pipetted, and diluted with PBS to obtain a working solution at the concentrations of 150 μM, 50 μM, 15 μM, 5 μM, 1.5 μM, 0.15 μM and 0.015 μM for later use.
(§4) 3. Procedures • 1) 40 μL of human liver microsome solution (0.25 mg/mL), 20 μL of probe substrate solution and 20 μL of test compound solution were precisely pipetted into a 96-well plate and pre-incubated for 5 min under a water bath at 37° C. • 2) After 5 min of pre-incubation, the mixture was taken out, 20 μL of 5 mM NADPH solution was added to initiate the reaction, and the resulting mixture was incubated for 30 min under a water bath at 37° C. […]
(§5) The values were calculated by Graphpad Prism to obtain the IC50 values for the inhibition of drugs on CYP1A2 phenacetin, CYP2C19 (S)-mephenytoin and CYP3A4M midazolam sites of metabolism in human liver microsomes, as shown in Table 7.

CYP3A4M = CYP3A4M (Homo sapiens (Human), UniProt P08684); experiment: Inhibition of human liver microsome CYP450 enzyme, CYP3A4M midazolam site; type: in vitro ADME; conditions: human liver microsomes, probe substrate midazolam
CYP3A4M, sequence (P08684 whole entry): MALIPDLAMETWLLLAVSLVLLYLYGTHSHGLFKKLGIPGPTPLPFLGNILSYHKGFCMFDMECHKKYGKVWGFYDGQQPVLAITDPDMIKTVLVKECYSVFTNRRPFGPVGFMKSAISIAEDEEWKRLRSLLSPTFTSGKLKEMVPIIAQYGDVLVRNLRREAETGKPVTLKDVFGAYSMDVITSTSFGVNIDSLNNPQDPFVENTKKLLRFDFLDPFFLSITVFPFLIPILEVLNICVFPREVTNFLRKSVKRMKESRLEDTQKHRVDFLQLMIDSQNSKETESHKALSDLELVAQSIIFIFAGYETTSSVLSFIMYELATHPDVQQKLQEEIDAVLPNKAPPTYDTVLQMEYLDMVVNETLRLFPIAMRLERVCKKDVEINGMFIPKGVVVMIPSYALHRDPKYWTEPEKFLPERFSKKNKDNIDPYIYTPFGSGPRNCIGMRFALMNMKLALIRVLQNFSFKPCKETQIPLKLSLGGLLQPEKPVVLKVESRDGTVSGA
Procedure: as §1, §2, §3, §4, §5

CYP2C19 = CYP2C19 (Homo sapiens (Human), UniProt P33261); experiment: Inhibition of human liver microsome CYP450 enzyme, CYP2C19 (S)-mephenytoin site; type: in vitro ADME; conditions: human liver microsomes, probe substrate (S)-mephenytoin
CYP2C19, sequence (P33261 whole entry): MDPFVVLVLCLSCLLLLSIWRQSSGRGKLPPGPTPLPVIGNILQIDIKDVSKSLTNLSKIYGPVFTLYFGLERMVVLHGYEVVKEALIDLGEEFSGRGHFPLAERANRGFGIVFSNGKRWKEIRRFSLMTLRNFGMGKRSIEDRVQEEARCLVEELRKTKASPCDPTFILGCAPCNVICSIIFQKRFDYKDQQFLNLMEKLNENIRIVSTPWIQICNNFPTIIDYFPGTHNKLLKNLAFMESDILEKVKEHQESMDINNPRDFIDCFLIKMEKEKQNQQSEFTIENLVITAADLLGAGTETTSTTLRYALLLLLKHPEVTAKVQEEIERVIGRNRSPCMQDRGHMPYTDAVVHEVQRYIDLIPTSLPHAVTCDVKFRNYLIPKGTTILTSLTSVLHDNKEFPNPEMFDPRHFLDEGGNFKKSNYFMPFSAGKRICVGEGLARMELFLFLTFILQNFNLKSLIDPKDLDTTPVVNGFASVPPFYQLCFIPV
Procedure: as §1, §2, §3, §4, §5

hERG potassium channel, sequence (Q12809 whole entry): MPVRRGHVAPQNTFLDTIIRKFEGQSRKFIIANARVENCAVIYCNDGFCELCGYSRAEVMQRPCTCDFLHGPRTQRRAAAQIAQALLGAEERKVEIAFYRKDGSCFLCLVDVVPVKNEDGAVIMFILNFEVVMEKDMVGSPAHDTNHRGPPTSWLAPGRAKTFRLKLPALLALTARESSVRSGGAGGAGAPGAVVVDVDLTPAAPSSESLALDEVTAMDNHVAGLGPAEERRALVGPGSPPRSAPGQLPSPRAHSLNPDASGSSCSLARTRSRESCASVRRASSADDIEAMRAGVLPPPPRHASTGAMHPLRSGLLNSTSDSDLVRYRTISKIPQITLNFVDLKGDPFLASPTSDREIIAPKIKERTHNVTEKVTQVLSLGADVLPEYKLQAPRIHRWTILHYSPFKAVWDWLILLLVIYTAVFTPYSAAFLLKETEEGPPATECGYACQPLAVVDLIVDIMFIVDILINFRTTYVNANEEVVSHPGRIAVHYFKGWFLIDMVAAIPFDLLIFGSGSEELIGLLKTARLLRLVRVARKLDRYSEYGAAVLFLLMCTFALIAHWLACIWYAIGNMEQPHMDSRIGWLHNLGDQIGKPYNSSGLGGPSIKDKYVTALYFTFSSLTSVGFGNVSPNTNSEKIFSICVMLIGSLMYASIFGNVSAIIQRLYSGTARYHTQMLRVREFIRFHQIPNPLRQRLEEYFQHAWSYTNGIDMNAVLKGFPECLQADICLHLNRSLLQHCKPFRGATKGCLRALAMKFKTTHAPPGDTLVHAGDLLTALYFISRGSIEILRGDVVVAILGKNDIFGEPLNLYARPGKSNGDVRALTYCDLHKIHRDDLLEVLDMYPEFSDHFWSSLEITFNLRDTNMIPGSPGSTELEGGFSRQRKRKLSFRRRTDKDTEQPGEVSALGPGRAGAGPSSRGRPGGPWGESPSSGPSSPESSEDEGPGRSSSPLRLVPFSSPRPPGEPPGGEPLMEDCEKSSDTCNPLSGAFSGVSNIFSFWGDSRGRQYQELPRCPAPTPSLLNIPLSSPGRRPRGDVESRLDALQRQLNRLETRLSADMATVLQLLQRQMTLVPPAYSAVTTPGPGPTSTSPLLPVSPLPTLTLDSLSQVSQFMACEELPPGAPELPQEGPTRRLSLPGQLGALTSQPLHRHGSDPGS

Row | IC50 (CYP1A2) [µM] | IC50 (CYP3A4M) [µM] | IC50 (CYP2C19) [µM] | Structure (SMILES) | pIC50 (hERG potassium channel)
1 | > 30 | > 30 | > 30 | O=C(O)c1ccc2nc(CN3CCC(c4cccc5c4O[C@@H](c4ccc(Cl)cc4F)CO5)CC3)n(C[C@@H]3CCO3)c2n1 [Example 5, 2-((4-((S)-3-(4-Chloro-2-fluorophenyl)-2,3-dihydrobenzo[b][1,4]dioxan-5-yl)piperidin-1-yl)methyl)-3-((S)-oxetan-2-ylmethyl)-3H-imidazo[4,5-b]pyridine-5-carboxylic acid] | 4.59
2 | > 30 | > 30 | > 30 | O=C(O)c1ccc2nc(CN3CCC(c4cccc5c4O[C@@H](c4ccc(Cl)cc4F)CO5)CC3)n(C[C@@H]3CCO3)c2c1 [Example 4, 2-((4-((S)-3-(4-Chloro-2-fluorophenyl)-2,3-dihydrobenzo[b][1,4]dioxan-5-yl)piperidin-1-yl)methyl)-1-(((S)-oxetan-2-yl)methyl)-1H-benzo[d]imidazole-6-carboxylic acid] | 5.00
3 | 12.5 | 25.5 | 7.4 | C[C@]1(c2ccc(Cl)cc2F)Oc2cccc(C3CCN(Cc4nc5ccc(C(=O)O)cc5n4C[C@@H]4CCO4)CC3)c2O1 [Positive compound 1, reference compound] | 5.34

Source: patent US20230322756A1, “FUSED IMIDAZOLE DERIVATIVE, PREPARATION METHOD THEREFOR, AND MEDICAL USE THEREOF” (JIANGSU HENGRUI MEDICINE CO., LTD., priority 2020, published 2023)
